# Read-outs that look alike come from different tables or passages of the source.
# Experiments:
# [1] = system: Novel enterovirus D68 (EV-D68); type: cell-based; conditions: for CPE test (virus replication in cell wells) / CPE test (virus replication in the cell wells): wells 1-10; for average inactivation efficiency against virus / inactivation efficiency against the virus: EV-D68 virus; for average inactivation efficiency against virus: three experiments; for CPE test per cell well: first experiment; for inactivation efficiency against the virus: single experiment
# SARS-CoV-2/C57MA14 = system: SARS-CoV-2/C57MA14; set-up: species or system BALB/c mice; conditions: mouse, in vivo
smiles,measurement,setting,value
"O=C(O[C@@H]1Cc2c(O)cc(O)cc2O[C@@H]1c1cc(O)c(O)c(O)c1)c1cc(O)c(O)c(O)c1 [EGCG, Epigallocatechin gallate]",CPE test (virus replication in cell wells),"[1]; 1 mM EGCG + virus, 1 minute, dilution factor 10^5, second experiment",+
same,CPE test (virus replication in cell wells),"[1]; 1 mM EGCG + virus, 1 minute, dilution factor 10^5, third experiment",+
same,CPE test (virus replication in cell wells),"[1]; 1 mM EGCG + virus, 1 minute, dilution factor 10^6, second experiment",+ and −
same,CPE test (virus replication in cell wells),"[1]; 1 mM EGCG + virus, 1 minute, dilution factor 10^6, third experiment",+ and −
same,CPE test (virus replication in cell wells),"[1]; 1 mM EGCG + virus, 1 minute, dilution factor 10^7, second experiment",− and +
same,CPE test (virus replication in cell wells),"[1]; 1 mM EGCG + virus, 1 minute, dilution factor 10^7, third experiment",− and +
same,CPE test (virus replication in cell wells),"[1]; 1 mM EGCG + virus, 1 minute, dilution factor 10^8, second experiment",−
same,CPE test (virus replication in cell wells),"[1]; 1 mM EGCG + virus, 1 minute, dilution factor 10^8, third experiment",−
same,CPE test (virus replication in the cell wells),"[1]; 1 mM EGCG + virus, co-incubated 5 minute, dilution factor 10^1, first experiment",+
same,CPE test (virus replication in the cell wells),"[1]; 1 mM EGCG + virus, co-incubated 5 minute, dilution factor 10^1, second experiment",+
same,CPE test (virus replication in the cell wells),"[1]; 1 mM EGCG + virus, co-incubated 5 minute, dilution factor 10^2, first experiment",+
same,CPE test (virus replication in the cell wells),"[1]; 1 mM EGCG + virus, co-incubated 5 minute, dilution factor 10^2, second experiment",+
same,CPE test (virus replication in the cell wells),"[1]; 1 mM EGCG + virus, co-incubated 5 minute, dilution factor 10^3, first experiment",+
same,CPE test (virus replication in the cell wells),"[1]; 1 mM EGCG + virus, co-incubated 5 minute, dilution factor 10^3, second experiment",+
same,CPE test (virus replication in the cell wells),"[1]; 1 mM EGCG + virus, co-incubated 5 minute, dilution factor 10^4, first experiment",+
same,CPE test (virus replication in the cell wells),"[1]; 1 mM EGCG + virus, co-incubated 5 minute, dilution factor 10^4, second experiment",+
same,CPE test (virus replication in the cell wells),"[1]; 1 mM EGCG + virus, co-incubated 5 minute, dilution factor 10^5, first experiment",+
same,CPE test (virus replication in the cell wells),"[1]; 1 mM EGCG + virus, co-incubated 5 minute, dilution factor 10^5, second experiment",+
same,CPE test (virus replication in the cell wells),"[1]; 1 mM EGCG + virus, co-incubated 5 minute, dilution factor 10^6, first experiment",+ and −
same,CPE test (virus replication in the cell wells),"[1]; 1 mM EGCG + virus, co-incubated 5 minute, dilution factor 10^6, second experiment",+ and −
same,CPE test (virus replication in the cell wells),"[1]; 1 mM EGCG + virus, co-incubated 5 minute, dilution factor 10^7, first experiment",−
same,CPE test (virus replication in the cell wells),"[1]; 1 mM EGCG + virus, co-incubated 5 minute, dilution factor 10^7, second experiment",−
same,CPE test (virus replication in the cell wells),"[1]; 1 mM EGCG + virus, co-incubated 5 minute, dilution factor 10^8, first experiment",−
same,CPE test (virus replication in the cell wells),"[1]; 1 mM EGCG + virus, co-incubated 5 minute, dilution factor 10^8, second experiment",−
same,average inactivation efficiency against virus,"[1]; 1 mM EGCG, 1 minute",41.23%
same,average inactivation efficiency against virus,"[1]; 1 mM EGCG, 5 minutes",35.78%
same,CPE test per cell well,"[1]; 5 mM EGCG + EV-D68 virus, 1 minute, dilution factor 10^2, wells 1-10",+
same,CPE test per cell well,"[1]; 5 mM EGCG + EV-D68 virus, 1 minute, dilution factor 10^3, wells 1-10",+
same,CPE test per cell well,"[1]; 5 mM EGCG + EV-D68 virus, 1 minute, dilution factor 10^4, wells 1-10",+
same,CPE test per cell well,"[1]; 5 mM EGCG + EV-D68 virus, 1 minute, dilution factor 10^5, wells 1-10",+
same,CPE test per cell well,"[1]; 5 mM EGCG + EV-D68 virus, 1 minute, dilution factor 10^6, wells 1-10",− and +
same,CPE test per cell well,"[1]; 5 mM EGCG + EV-D68 virus, 1 minute, dilution factor 10^7, wells 1-10",− and +
same,CPE test per cell well,"[1]; 5 mM EGCG + EV-D68 virus, 1 minute, dilution factor 10^8, wells 1-10",−
same,CPE test (virus replication in cell wells),"[1]; 5 mM EGCG + EV-D68 virus, co-incubated 5 minute, third experiment, dilution factor 10^2",+
same,CPE test (virus replication in cell wells),"[1]; 5 mM EGCG + EV-D68 virus, co-incubated 5 minute, third experiment, dilution factor 10^3",+
same,CPE test (virus replication in cell wells),"[1]; 5 mM EGCG + EV-D68 virus, co-incubated 5 minute, third experiment, dilution factor 10^4",+
same,CPE test (virus replication in cell wells),"[1]; 5 mM EGCG + EV-D68 virus, co-incubated 5 minute, third experiment, dilution factor 10^5",+
same,CPE test (virus replication in cell wells),"[1]; 5 mM EGCG + EV-D68 virus, co-incubated 5 minute, third experiment, dilution factor 10^6",− and +
same,CPE test (virus replication in cell wells),"[1]; 5 mM EGCG + EV-D68 virus, co-incubated 5 minute, third experiment, dilution factor 10^7",−
same,CPE test (virus replication in cell wells),"[1]; 5 mM EGCG + EV-D68 virus, co-incubated 5 minute, third experiment, dilution factor 10^8",−
same,CPE test (virus replication in cell wells),"[1]; 5 mM EGCG + virus, 1 minute, dilution factor 10^1, third experiment",+
same,CPE test (virus replication in cell wells),"[1]; 5 mM EGCG + virus, 1 minute, dilution factor 10^2, second experiment",+
same,CPE test (virus replication in cell wells),"[1]; 5 mM EGCG + virus, 1 minute, dilution factor 10^2, third experiment",+
same,CPE test (virus replication in cell wells),"[1]; 5 mM EGCG + virus, 1 minute, dilution factor 10^3, second experiment",+
same,CPE test (virus replication in cell wells),"[1]; 5 mM EGCG + virus, 1 minute, dilution factor 10^3, third experiment",+
same,CPE test (virus replication in cell wells),"[1]; 5 mM EGCG + virus, 1 minute, dilution factor 10^4, second experiment",+
same,CPE test (virus replication in cell wells),"[1]; 5 mM EGCG + virus, 1 minute, dilution factor 10^4, third experiment",+
same,CPE test (virus replication in cell wells),"[1]; 5 mM EGCG + virus, 1 minute, dilution factor 10^5, second experiment",+
same,CPE test (virus replication in cell wells),"[1]; 5 mM EGCG + virus, 1 minute, dilution factor 10^5, third experiment",+
same,CPE test (virus replication in cell wells),"[1]; 5 mM EGCG + virus, 1 minute, dilution factor 10^6, second experiment",+ and −
same,CPE test (virus replication in cell wells),"[1]; 5 mM EGCG + virus, 1 minute, dilution factor 10^6, third experiment",+ and −
same,CPE test (virus replication in cell wells),"[1]; 5 mM EGCG + virus, 1 minute, dilution factor 10^7, second experiment",−
same,CPE test (virus replication in cell wells),"[1]; 5 mM EGCG + virus, 1 minute, dilution factor 10^7, third experiment",− and +
same,CPE test (virus replication in cell wells),"[1]; 5 mM EGCG + virus, 1 minute, dilution factor 10^8, second experiment",−
same,CPE test (virus replication in cell wells),"[1]; 5 mM EGCG + virus, 1 minute, dilution factor 10^8, third experiment",−
same,CPE test (virus replication in the cell wells),"[1]; 5 mM EGCG + virus, co-incubated 5 minute, dilution factor 10^2, first experiment",+
same,CPE test (virus replication in the cell wells),"[1]; 5 mM EGCG + virus, co-incubated 5 minute, dilution factor 10^2, second experiment",+
same,CPE test (virus replication in the cell wells),"[1]; 5 mM EGCG + virus, co-incubated 5 minute, dilution factor 10^3, first experiment",+
same,CPE test (virus replication in the cell wells),"[1]; 5 mM EGCG + virus, co-incubated 5 minute, dilution factor 10^3, second experiment",+
same,CPE test (virus replication in the cell wells),"[1]; 5 mM EGCG + virus, co-incubated 5 minute, dilution factor 10^4, first experiment",+
same,CPE test (virus replication in the cell wells),"[1]; 5 mM EGCG + virus, co-incubated 5 minute, dilution factor 10^4, second experiment",+
same,CPE test (virus replication in the cell wells),"[1]; 5 mM EGCG + virus, co-incubated 5 minute, dilution factor 10^5, first experiment",+
same,CPE test (virus replication in the cell wells),"[1]; 5 mM EGCG + virus, co-incubated 5 minute, dilution factor 10^5, second experiment",+
same,CPE test (virus replication in the cell wells),"[1]; 5 mM EGCG + virus, co-incubated 5 minute, dilution factor 10^6, first experiment",− and +
same,CPE test (virus replication in the cell wells),"[1]; 5 mM EGCG + virus, co-incubated 5 minute, dilution factor 10^6, second experiment",+ and −
same,CPE test (virus replication in the cell wells),"[1]; 5 mM EGCG + virus, co-incubated 5 minute, dilution factor 10^7, first experiment",−
same,CPE test (virus replication in the cell wells),"[1]; 5 mM EGCG + virus, co-incubated 5 minute, dilution factor 10^7, second experiment",−
same,CPE test (virus replication in the cell wells),"[1]; 5 mM EGCG + virus, co-incubated 5 minute, dilution factor 10^8, first experiment",−
same,CPE test (virus replication in the cell wells),"[1]; 5 mM EGCG + virus, co-incubated 5 minute, dilution factor 10^8, second experiment",−
same,inactivation efficiency against the virus,"[1]; 5 mM EGCG, 1 minute",80.05%
same,average inactivation efficiency against virus,"[1]; 5 mM EGCG, 1 minute",66.10%
same,inactivation efficiency against the virus,"[1]; 5 mM EGCG, 5 minutes",74.88%
same,average inactivation efficiency against virus,"[1]; 5 mM EGCG, 5 minutes",66.55%
same,mice protected from death caused by lethal dose infection,SARS-CoV-2/C57MA14,60%
same,viral nucleic acid loads in lungs and turbinates,SARS-CoV-2/C57MA14,significantly reduce
